This is an account of results in PubChem BioAssay (NCI).

Experiment in all cases: NCI anticancer screen, dose series, 48 h
For experiment [1], the system named is COLO 205 colon.
For experiment [2], the system named is UACC-257 melanoma.
In experiment [3] the test system is OVCAR-8 ovarian.
For experiment [4], the system named is SK-OV-3 ovarian.
Experiment [5] concerns SNB-75 CNS.
Experiment [6] relates to SN12C renal.
Experiment [7] deals with RPMI-8226 leukemia.
Experiment [8] concerns SNB-19 CNS.
For experiment [9], the system named is ACHN renal.
Experiment [10] has as its system KM20L2 colon.
Experiment [11] has as its system DLD-1 colon.

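Interpolation was linear, between the two tested concentrations surrounding the appropriate level; five concentrations were tested over 48 hours in 96-well plates. TGI: total growth inhibition.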

For the compound `O=c1oc2ccc([N+](=O)[O-])cc2nc1/C=C(\O)c1ccccc1`, the TGI in [1], in experiment [2], in experiment [3], in experiment [4], in [5] and in experiment [6] was over 100 µM in each case. Besides, the TGI in [7], in [8] and in experiment [9] was over 100 µM throughout.
For `CC(C)OP(=O)(OC(C)C)C(=NCCO)NNc1ccc([N+](=O)[O-])cc1`, the TGI in [1], in experiment [2], in experiment [3], in experiment [5], in experiment [6] and in experiment [10] was over 100 µM in each case. For the same compound, the TGI in experiment [7], in [11], in [8] and in [9] was over 100 µM in each case.
Consider `CN1C(=O)c2ccccc2C(O)(c2ccccc2)C1(O)c1ccccc1` (stereo not given), for which the TGI in experiment [1], in experiment [2], in experiment [3], in [4], in experiment [5] and in experiment [6] was over 100 µM in each case. Also, the TGI in experiment [7], in experiment [8] and in experiment [9] was over 100 µM in each case.
`COc1ccccc1-n1cnc2c1NC(C)(C)N=C2C(N)=O`: the TGI in experiment [1], in experiment [2], in experiment [3], in experiment [4], in experiment [5] and in experiment [6] was over 100 µM each time. The TGI in experiment [7], in experiment [8] and in experiment [9] was over 100 µM throughout.
On to `Oc1ccc(-c2c3ccccc3c(-c3ccc(O)cc3)c3ccccc23)cc1`, for which the TGI in [1], in [2], in [3], in [4], in experiment [5] and in [6] was over 100 µM in each case. For the same compound, the TGI in [10], in experiment [7], in experiment [11], in experiment [8] and in [9] was over 100 µM each time.
In the case of `O=C(N/N=C(/COc1ccccc1)N=Cc1ccncc1)c1ccncc1`, the TGI in [1], in experiment [2], in experiment [3], in [4], in experiment [5] and in [6] was over 100 µM in each case. The TGI in experiment [7], in experiment [8] and in experiment [9] was over 100 µM in each case.
As for `Cc1cc(OCc2nc(N)nc(N)c2-c2ccc(Cl)c(Cl)c2)ccc1[N+](=O)[O-]`, the TGI in experiment [1] was 18.9 µM; in experiment [2], 3.28 µM; in [3], 34 µM; in experiment [4] it was over 63.3 µM; in [5] it was 13.7 µM; in [6], 25.9 µM. Moreover, the TGI was over 78.7 µM in experiment [7], over 55.1 µM in experiment [8] and 2.37 µM in [9].
On to `CN1C(=O)N(C)C2(CCN(CC(CC3OCCO3)c3ccc(F)cc3)CC2)C1=O` (stereo not given), for which the TGI in experiment [1], in [2], in [3], in [4], in experiment [5] and in [6] was over 100 µM in each case. Besides, the TGI in experiment [7], in experiment [8] and in experiment [9] was over 100 µM each time.
Regarding `N#C/C(=C\c1ccc(O)c(O)c1)c1c(C#N)c(N)nn1-c1ccccc1`, the TGI in [1] is 61.1 µM; in experiment [2] it was over 100 µM; in [3], 29.2 µM; in experiment [4], 36.5 µM; in experiment [5], over 100 µM; in experiment [6], 39.4 µM. Further, the TGI in experiment [10] is over 100 µM; in experiment [11], over 100 µM; in experiment [8] it was 42.4 µM; in experiment [9], 26.9 µM.
Take `CCOC(=O)/C(Br)=C1\OC(=O)c2ccccc2-c2ccccc21`: the TGI was 49.9 µM in experiment [1]; over 100 µM in experiment [2]; over 100 µM in experiment [3]; over 100 µM in experiment [4]; over 100 µM in experiment [5]; over 100 µM in experiment [6]. Also, the TGI in [7], in experiment [11] and in [9] was over 100 µM each time.
As to `C=C1C(=O)OC2C1CCC(=C)C1CC(O)C(=C)C12` (stereo not given), the TGI in experiment [1] is 6.89 µM; in experiment [2], 27.2 µM; in experiment [3], 60.4 µM; in experiment [4] it was over 100 µM; in experiment [5] it was 37.3 µM; in experiment [6], 31.9 µM. Moreover, the TGI in experiment [7] turned out to be 23 µM; in experiment [8], 66.6 µM; in experiment [9], 7.99 µM.
Regarding `OC1(c2ccccc2)CC2CCC(C1)N2CCCC(O)(c1ccccc1)c1ccccc1` (stereo not given), the TGI in [1] was 30.8 µM; in [2], 4 µM; in experiment [3] it was 36.1 µM; in experiment [4] it was 28.1 µM; in experiment [5], 23.8 µM; in experiment [6], 39.1 µM. Besides, the values for the TGI in [7], in experiment [8] and in experiment [9] were 6.4 µM, 42.9 µM and 31.5 µM, respectively.
With `CC(=O)N1C(C(=O)NN2CCOCC2)CSC1c1ccccc1` (stereo not given), the TGI in experiment [1], in experiment [2], in experiment [3], in experiment [4], in experiment [5] and in [6] was over 100 µM each time. The TGI in [7], in experiment [8] and in experiment [9] was over 100 µM throughout.
Consider `COc1ccc(CN(CCN(C)C)c2ccccn2)cc1` (tested in a mixture with another compound), for which the TGI in [2], in [3], in [4], in experiment [5], in experiment [6] and in experiment [10] was over 100 µM each time. Further, the TGI in [11], in [8] and in experiment [9] was over 100 µM in each case.
